Tests used:
Enterococcus faecalis = assay: Antimicrobial activity against Enterococcus faecalis OG1RF assessed as inhibition of microbial growth; assay type: functional
Erythrocyte = assay: Hemolytic activity against human RBC assessed as concentration required to cause >20% hemolysis; assay type: ADME, cell-based
Staphylococcus aureus [1] = assay: Antimicrobial activity against community acquired methicillin-resistant Staphylococcus aureus USA300 assessed as inhibition of microbial growth; assay type: functional
Staphylococcus aureus [2] = assay: Antimicrobial activity against methicillin-susceptible Staphylococcus aureus SH1000 assessed as inhibition of microbial growth; assay type: functional
Staphylococcus aureus [3] = assay: microbe, parasite or virus in culture; assay type: functional; conditions: ATCC 33591
Description: Antimicrobial activity against hospital acquired methicillin-resistant Staphylococcus aureus ATCC 33591 assessed as inhibition of microbial growth

Pseudomonas aeruginosa = assay: Antimicrobial activity against Pseudomonas aeruginosa PAO1 assessed as inhibition of microbial growth; assay type: functional
Escherichia coli = assay: Antimicrobial activity against Escherichia coli MC4100 assessed as inhibition of microbial growth; assay type: functional

Compound | MIC (Enterococcus faecalis) | HC20 (Erythrocyte) | MIC (Staphylococcus aureus [1]) | MIC (Staphylococcus aureus [2]) | MIC (Staphylococcus aureus [3]) | MIC (Pseudomonas aeruginosa) | MIC (Escherichia coli)
CCCCCCCCCCCCCCCC[S+]1CCCC1.[I-] | > 250 µM | 16 µM | 4 µM | 2 µM | 8 µM | > 250 µM | 125 µM
CCCCCCCCCC[N+]1(C)CCCC1.[Br-] | > 250 µM | 250 µM | > 250 µM | > 250 µM | > 250 µM | > 250 µM | > 250 µM
CCCCCCCC[S+]1CCCC1.[I-] | > 250 µM | 125 µM | > 250 µM | > 250 µM | > 250 µM | > 250 µM | > 250 µM
C(CCCCC[S+]1CCCC1)CCCC[S+]1CCCC1.[I-].[I-] | > 250 µM | 125 µM | 250 µM | 250 µM | > 250 µM | > 250 µM | > 250 µM
CCCCCCCCCCCCC[N+]1(C)CCCC1.[Br-] | > 250 µM | 63 µM | 16 µM | 8 µM | 63 µM | > 250 µM | > 250 µM
C(CCCCCC[S+]1CCCC1)CCCCC[S+]1CCCC1.[I-].[I-] | > 250 µM | 250 µM | 250 µM | 250 µM | > 250 µM | > 250 µM | > 250 µM
CCCCCCCCCCCCCC[N+]1(C)CCCC1.[Br-] | > 250 µM | 32 µM | 8 µM | 4 µM | 16 µM | > 250 µM | 250 µM
C[N+]1(CCCCCCCCCC[N+]2(C)CCCC2)CCCC1.[Br-].[Br-] | > 250 µM | 125 µM | > 250 µM | > 250 µM | > 250 µM | > 250 µM | > 250 µM
CCCCCCCCCCC[N+]1(C)CCCC1.[Br-] | > 250 µM | 125 µM | 125 µM | 125 µM | > 250 µM | > 250 µM | > 250 µM
CCCCCCCCCCCCCCCCCC[N+]1(C)CCCC1.[Br-] | > 250 µM | 16 µM | 4 µM | 2 µM | 8 µM | 250 µM | 63 µM
CCCCCCCCCCCC[N+]1(C)CCCC1.[Br-] | > 250 µM | 125 µM | 32 µM | 32 µM | 125 µM | > 250 µM | > 250 µM
C[N+]1(CCCCCCCCCCCC[N+]2(C)CCCC2)CCCC1.[Br-].[Br-] | > 250 µM | 125 µM | > 250 µM | > 250 µM | > 250 µM | > 250 µM | > 250 µM
CCCCCCCCCCCCCCCC[N+]1(C)CCCC1.[Br-] | > 250 µM | 16 µM | 2 µM | 4 µM | 8 µM | > 250 µM | 125 µM
C[N+]1(CCCCCCCC[N+]2(C)CCCC2)CCCC1.[Br-].[Br-] | > 250 µM | 125 µM | > 250 µM | > 250 µM | > 250 µM | > 250 µM | > 250 µM
C(CCCC[S+]1CCCC1)CCC[S+]1CCCC1.[I-].[I-] | > 250 µM | 125 µM | > 250 µM | > 250 µM | > 250 µM | > 250 µM | > 250 µM
CCCCCCCCCCCC[S+]1CCCC1.[I-] | > 250 µM | 125 µM | 16 µM | 16 µM | 125 µM | > 250 µM | > 250 µM
CCCCCCCCCCCCCC[S+]1CCCC1.[I-] | > 250 µM | 16 µM | 4 µM | 4 µM | 32 µM | > 250 µM | 250 µM
CCCCCCCCCCCCCCCC[n+]1ccccc1.[Cl-] | – | 8 µM | – | – | – | – | –
CCCCCCCC[N+]1(C)CCCC1.[Br-] | > 250 µM | 125 µM | > 250 µM | > 250 µM | > 250 µM | > 250 µM | > 250 µM
CCCCCCCCCCC[S+]1CCCC1.[I-] | > 250 µM | 125 µM | 250 µM | 125 µM | 250 µM | > 250 µM | > 250 µM
CCCCCCCCCCCCCCCCCC[S+]1CCCC1.[I-] | > 250 µM | 16 µM | 4 µM | 1 µM | 8 µM | 250 µM | 63 µM
CCCCCCCCCCCCC[S+]1CCCC1.[I-] | > 250 µM | 63 µM | 32 µM | 8 µM | 125 µM | > 250 µM | > 250 µM
CCCCCCCCCC[S+]1CCCC1.[I-] | > 250 µM | 125 µM | 250 µM | 250 µM | > 250 µM | > 250 µM | > 250 µM

Reference: ChEMBL document CHEMBL4706678, “Trivalent sulfonium compounds (TSCs): Tetrahydrothiophene-based amphiphiles exhibit similar antimicrobial activity to analogous ammonium-based amphiphiles” (Bioorg Med Chem Lett, 2021)
